From ChEMBL document CHEMBL5634143, “Development of teixobactin analogues containing hydrophobic, non-proteogenic amino acids that are highly potent against multidrug-resistant bacteria and biofilms” (Eur J Med Chem, 2023)
Converted amounts (≈) assume the structure as drawn.

Columns and labels:
Format in all cases: functional
[1] = test system: Bacillus cereus; test: Antibacterial activity against Bacillus cereus ATCC 11788 assessed as inhibition of bacterial growth
[2] = test system: Staphylococcus epidermidis; test: Antibacterial activity against Staphylococcus epidermidis 12228 assessed as inhibition of bacterial growth
[3] = test system: Enterococcus faecium; test: Antibacterial activity against Vancomycin-resistant Enterococcus faecium 1014 assessed as inhibition of bacterial growth
[4] = test system: Staphylococcus aureus; test: Antibacterial activity against Staphylococcus aureus 4299 assessed as inhibition of bacterial growth
[5] = test system: Staphylococcus aureus; test: Antibacterial activity against methicilin-resistant Staphylococcus aureus 42412 assessed as inhibition of bacterial growth
[6] = test system: Staphylococcus saprophyticus; test: Antibacterial activity against Staphylococcus saprophyticus ATCC BAA 750 assessed as inhibition of bacterial growth
[7] = test system: Enterococcus faecium; test: Antibacterial activity against Vancomycin-resistant Enterococcus […] ATCC 29212 assessed as inhibition of bacterial growth; conditions: Enterococcus faecalis
[8] = test system: Staphylococcus aureus; test: Antibacterial activity against Staphylococcus aureus 29213 assessed as inhibition of bacterial growth
[9] = test system: Staphylococcus aureus; test: Antibacterial activity against methicilin-resistant Staphylococcus aureus 21455 assessed as inhibition of bacterial growth
[10] = test system: Staphylococcus aureus; test: Antibacterial activity against methicilin-resistant Staphylococcus aureus 1003 assessed as inhibition of bacterial growth
[11] = test system: Staphylococcus saprophyticus; test: Antibacterial activity against Staphylococcus saprophyticus ATCC 15305 assessed as inhibition of bacterial growth
[12] = test system: Staphylococcus saprophyticus; test: Antibacterial activity against Staphylococcus saprophyticus ATCC 49453 assessed as inhibition of bacterial growth
[13] = test system: Enterococcus faecium; test: Antibacterial activity against Vancomycin-resistant Enterococcus […] ATCC 700802 assessed as inhibition of bacterial growth
[14] = test system: Staphylococcus aureus; test: Antibacterial activity against methicilin-resistant Staphylococcus aureus ATCC 700699 assessed as inhibition of bacterial growth
[15] = test system: Staphylococcus saprophyticus; test: Antibacterial activity against Staphylococcus saprophyticus ATCC 49907 assessed as inhibition of bacterial growth
[16] = test system: Bacillus subtilis; test: Antibacterial activity against Bacillus subtilis ATCC 6633 assessed as inhibition of bacterial growth

| Compound | MIC [1] [µg/mL] | MIC [2] [µg/mL] | MIC [3] [µg/mL] | MIC [4] [µg/mL] | MIC [5] [µg/mL] | MIC [6] [µg/mL] | MIC [7] [µg/mL] | MIC [8] [µg/mL] | MIC [9] [µg/mL] | MIC [10] [µg/mL] | MIC [11] [µg/mL] | MIC [12] [µg/mL] | MIC [13] [µg/mL] | MIC [14] [µg/mL] | MIC [15] [µg/mL] | MIC [16] [µg/mL] |
| --- | --- | --- | --- | --- | --- | --- | --- | --- | --- | --- | --- | --- | --- | --- | --- | --- |
| CCC[C@@H]1NC(=O)[C@H](CCCNC(=N)N)NC(=O)[C@H](NC(=O)[C@H](CO)NC(=O)[C@@H](NC(=O)[C@H](NC(=O)[C@@H](CCCNC(=N)N)NC(=O)[C@H](CO)NC(=O)[C@@H](NC(=O)[C@@H](Cc2ccccc2)NC)[C@@H](C)CC)[C@@H](C)CC)[C@@H](C)CC)[C@H](C)OC(=O)[C@H]([C@@H](C)CC)NC1=O | 1 (≈ 0.769 µM) | 0.063 (≈ 0.0484 µM) | 2 (≈ 1.54 µM) | 0.063 (≈ 0.0484 µM) | 0.125 (≈ 0.0961 µM) | 0.063 (≈ 0.0484 µM) | 2 (≈ 1.54 µM) | 0.25 (≈ 0.192 µM) | 0.5 (≈ 0.384 µM) | 1 (≈ 0.769 µM) | 0.063 (≈ 0.0484 µM) | 0.063 (≈ 0.0484 µM) | 1 (≈ 0.769 µM) | 0.5 (≈ 0.384 µM) | 0.063 (≈ 0.0484 µM) | 0.5 (≈ 0.384 µM) |
| CCC[C@@H]1NC(=O)[C@H](CCCNC(=N)N)NC(=O)[C@H](NC(=O)[C@H](CO)NC(=O)[C@@H](NC(=O)[C@H](NC(=O)[C@@H](CCC(N)=O)NC(=O)[C@H](CCCNC(=N)N)NC(=O)[C@@H](NC(=O)[C@@H](Cc2ccccc2)NC)[C@@H](C)CC)[C@@H](C)CC)[C@@H](C)CC)[C@H](C)OC(=O)[C@H]([C@@H](C)CC)NC1=O | 1 (≈ 0.745 µM) | 0.063 (≈ 0.047 µM) | 2 (≈ 1.49 µM) | 0.25 (≈ 0.186 µM) | 0.125 (≈ 0.0932 µM) | 0.063 (≈ 0.047 µM) | 2 (≈ 1.49 µM) | 0.5 (≈ 0.373 µM) | 0.5 (≈ 0.373 µM) | 1 (≈ 0.745 µM) | 0.125 (≈ 0.0932 µM) | 0.063 (≈ 0.047 µM) | 2 (≈ 1.49 µM) | 0.25 (≈ 0.186 µM) | 0.063 (≈ 0.047 µM) | 0.063 (≈ 0.047 µM) |
| CCC[C@@H]1NC(=O)[C@H](CCCNC(=N)N)NC(=O)[C@H](NC(=O)[C@H](CO)NC(=O)[C@@H](NC(=O)[C@H](NC(=O)[C@@H](CCC(N)=O)NC(=O)[C@H](CO)NC(=O)[C@@H](NC(=O)[C@@H](Cc2ccccc2)NC)[C@@H](C)CC)[C@@H](C)CC)[C@@H](C)CC)[C@H](C)OC(=O)[C@H]([C@@H](C)CC)NC1=O | 0.5 (≈ 0.393 µM) | 0.063 (≈ 0.0495 µM) | 2 (≈ 1.57 µM) | 0.25 (≈ 0.196 µM) | 0.063 (≈ 0.0495 µM) | 0.063 (≈ 0.0495 µM) | 2 (≈ 1.57 µM) | 0.5 (≈ 0.393 µM) | 0.25 (≈ 0.196 µM) | 1 (≈ 0.786 µM) | 0.063 (≈ 0.0495 µM) | 0.063 (≈ 0.0495 µM) | 1 (≈ 0.786 µM) | 0.5 (≈ 0.393 µM) | 0.063 (≈ 0.0495 µM) | 0.063 (≈ 0.0495 µM) |
| CC[C@H](C)[C@H](NC(=O)[C@@H](Cc1ccccc1)NC)C(=O)N[C@@H](CCCNC(=N)N)C(=O)N[C@H](CCC(N)=O)C(=O)N[C@@H](C(=O)N[C@H](C(=O)N[C@@H](CO)C(=O)N[C@H]1C(=O)N[C@@H](CCCNC(=N)N)C(=O)N[C@@H](C2CCCCC2)C(=O)N[C@@H]([C@@H](C)CC)C(=O)O[C@H]1C)[C@@H](C)CC)[C@@H](C)CC | 1 (≈ 0.724 µM) | 0.063 (≈ 0.0456 µM) | 1 (≈ 0.724 µM) | 0.063 (≈ 0.0456 µM) | 0.063 (≈ 0.0456 µM) | < 0.063 | 1 (≈ 0.724 µM) | 0.25 (≈ 0.181 µM) | 0.5 (≈ 0.362 µM) | 0.5 (≈ 0.362 µM) | < 0.063 | 0.063 (≈ 0.0456 µM) | 1 (≈ 0.724 µM) | 0.5 (≈ 0.362 µM) | 0.063 (≈ 0.0456 µM) | 0.063 (≈ 0.0456 µM) |
| CCC[C@@H]1NC(=O)[C@H](C)NC(=O)[C@H](NC(=O)[C@H](CO)NC(=O)[C@@H](NC(=O)[C@H](NC(=O)[C@@H](CCC(N)=O)NC(=O)[C@H](CO)NC(=O)[C@@H](NC(=O)[C@@H](Cc2ccccc2)NC)[C@@H](C)CC)[C@@H](C)CC)[C@@H](C)CC)[C@H](C)OC(=O)[C@H]([C@@H](C)CC)NC1=O | 0.063 (≈ 0.0531 µM) | 0.125 (≈ 0.105 µM) | 1 (≈ 0.842 µM) | 0.063 (≈ 0.0531 µM) | 0.063 (≈ 0.0531 µM) | 0.063 (≈ 0.0531 µM) | 1 (≈ 0.842 µM) | 0.125 (≈ 0.105 µM) | 0.125 (≈ 0.105 µM) | 0.25 (≈ 0.211 µM) | 0.063 (≈ 0.0531 µM) | 0.063 (≈ 0.0531 µM) | 1 (≈ 0.842 µM) | 0.5 (≈ 0.421 µM) | 0.063 (≈ 0.0531 µM) | 0.063 (≈ 0.0531 µM) |
| CCC[C@@H]1NC(=O)[C@H](C)NC(=O)[C@H](NC(=O)[C@H](CO)NC(=O)[C@@H](NC(=O)[C@H](NC(=O)[C@@H](CCC(N)=O)NC(=O)[C@H](CCCNC(=N)N)NC(=O)[C@@H](NC(=O)[C@@H](Cc2ccccc2)NC)[C@@H](C)CC)[C@@H](C)CC)[C@@H](C)CC)[C@H](C)OC(=O)[C@H]([C@@H](C)CC)NC1=O | 0.063 (≈ 0.0501 µM) | 0.063 (≈ 0.0501 µM) | 1 (≈ 0.796 µM) | 0.063 (≈ 0.0501 µM) | 0.063 (≈ 0.0501 µM) | 0.063 (≈ 0.0501 µM) | 2 (≈ 1.59 µM) | 0.125 (≈ 0.0995 µM) | 0.063 (≈ 0.0501 µM) | 0.125 (≈ 0.0995 µM) | 0.063 (≈ 0.0501 µM) | 0.063 (≈ 0.0501 µM) | 1 (≈ 0.796 µM) | 0.25 (≈ 0.199 µM) | 0.063 (≈ 0.0501 µM) | 0.063 (≈ 0.0501 µM) |
